Test results: patent publication US20130123248A1, “PHARMACOLOGICAL MODULATION OF POSITIVE AMPA RECEPTOR MODULATOR EFFECTS ON NEUROTROPHIN EXPRESSION” (The Regents of the University of California, priority 2006, published 2013)
“Also recorded” adds a separate entry of the source.

Assays:
[1] = test system: GluR1 mRNA; experiment: GluR1 mRNA in situ hybridization in hippocampal slice cultures; assay type: cell-based, rat; conditions: 48 h
[2] = test system: BDNF mRNA; experiment: BDNF mRNA in situ hybridization in cultured rat hippocampal slices; assay type: cell-based; conditions: for hybridization to BDNF mRNA, principal hippocampal cell layers, entorhinal cortex, neocortex: CX614 50 μM
Experimental: Cultured hippocampal slices were prepared from rat pups (9 d postnatal) essentially as described by Lauterborn et al. (Lauterborn et al., 2000, J Neurosci 20(1):8-21). Slices were explanted onto Millicel-CM biomembrane inserts (Millipore, Bedford, Mass.; 6 slices/membrane) in a 6-well culture cluster plate (Corning, Cambridge, Mass.) containing sterile media (1 ml/well) consisting of minimum essential media, 30 mM dextrose, 30 mM HEPES, 5 mM Na2HCO3, 3 mM glutamine, 0.5 mM ascorbic acid, 2 mM CaCl2, 2.5 mM MgSO4, 1 mg/l insulin and 20% horse serum (pH 7.2; all reagents from Sigma, St. Louis, Mo.) and maintained for 10-18 d in a humidified incubator at 37° C. in 5% CO2. Media was changed three times/week. All experiments with the […]® (Cortex Pharmaceuticals) and mGluR5 antagonist (gift from FRAXA Research Foundation) began on days 11-12 in culture and were performed essentially as described by Lauterborn et al. (Lauterborn et al., 2000, J Neurosci 20(1):8-21) and Huber et al. (Huber et al., 2002, Proc Natl Acad Sci USA 99(11):7746-50). […]® were dissolved in 100% dimethylsulfoxide (DMSO; Sigma) and stored at -20° C. MPEP was dissolved in 100% DMSO. […] For controls, cultures were either untreated or treated with equivalent concentrations of vehicle (i.e., DMSO at final concentrations of 1:2,000-1:10,000). […] The cRNA to BDNF exon V was generated from PvuII-digested recombinant plasmid pRl 112-8 (Isackson et al., 1991, Neuron 6:937-948), yielding a 540 base length probe with 384 bases complementary to BDNF exon V-containing mRNA (Timmusk et al., 1993, Neuron 10:475-489). In situ hybridization was performed essentially as described by Lauterborn et al. (Lauterborn et al., 2000, J Neurosci 20(1):8-21; Lauterborn et al., 1994, Mol Cell Neurosci 5:46-62). Briefly, for in situ hybridization analyses, treatments were terminated by slice fixation with 4% paraformaldehyde in 0.1 M phosphate buffer, pH 7.2 (PPB). Cultures were re-sectioned parallel to the broad explant surface, slide-mounted, and processed for the in situ hybridization localization of BDNF mRNA using the ^35S-labeled BDNF cRNA probe described above. Following hybridization, the tissue was processed for film (Kodak Biomax) autoradiography. Quantification of in situ hybridization was performed essentially as described by Lauterborn et al. (Lauterborn et al., 2000, J Neurosci 20(1):8-21). Briefly, for quantification of in situ hybridization, hybridization densities were measured from film autoradiograms, with labeling densities calibrated relative to film images of ^14C-labeled standards (μCi/g), using the AIS system (Imaging Research Inc.). Significance was determined using the two-way ANOVA followed by Student-Newman-Keuls (SNK) or Student's t tests for individual comparisons.

[3] = test system: GluR2 mRNA; experiment: GluR2 mRNA in situ hybridization in hippocampal slice cultures; assay type: cell-based, rat; conditions: 48 h
[4] = test system: mature BDNF protein; experiment: Western blot for mature BDNF protein in organotypic hippocampal cultures; assay type: cell-based, rat; conditions: 24 h; CX614 50 μM
Experimental: Cultured hippocampal slices were prepared from rat pups (9 d postnatal) essentially as described by Lauterborn et al. (Lauterborn et al., 2000, J Neurosci 20(1):8-21). Slices were explanted onto Millicel-CM biomembrane inserts (Millipore, Bedford, Mass.; 6 slices/membrane) in a 6-well culture cluster plate (Corning, Cambridge, Mass.) containing sterile media (1 ml/well) consisting of minimum essential media, 30 mM dextrose, 30 mM HEPES, 5 mM Na2HCO3, 3 mM glutamine, 0.5 mM ascorbic acid, 2 mM CaCl2, 2.5 mM MgSO4, 1 mg/l insulin and 20% horse serum (pH 7.2; all reagents from Sigma, St. Louis, Mo.) and maintained for 10-18 d in a humidified incubator at 37° C. in 5% CO2. Media was changed three times/week. […]
For protein determinations, drug-treated and vehicle-treated hippocampal slice cultures were homogenized in RIPA (Radio-Immunoprecipitation Assay) buffer containing 10 mM Tris, pH 7.2, 158 mM NaCl, 1 mM EDTA, 0.1% SDS, 1% sodium deoxycholate, 1% triton-X, Complete Protease Inhibitor Cocktail (Roche Diagnostics; Indianapolis, Ind.), and Phosphatase Inhibitor Cocktails 1 and 2 (P2850 and 5726, Sigma), normalized for protein content using the Bio-Rad protein assay, and analyzed by Western blot analysis. […] Binding of anti-BDNF antibodies to BDNF was detected by enhanced chemiluminescence. Band densities were quantified using ImageQuant software (Molecular Dynamics, Sunnyvale, Calif.). […]

[5] = target: mGluR5 (Homo sapiens, UniProt P41594); conditions: cited from earlier work
[6] = test system: rat fear-potentiated startle model of anxiety; conditions: cited from earlier work
[7] = CX614 (20 μM in FIG. 6 legend, 50 μM in Example 6), MPEP 50 μM or both

Sequence of mGluR5 (P41594 21-1212): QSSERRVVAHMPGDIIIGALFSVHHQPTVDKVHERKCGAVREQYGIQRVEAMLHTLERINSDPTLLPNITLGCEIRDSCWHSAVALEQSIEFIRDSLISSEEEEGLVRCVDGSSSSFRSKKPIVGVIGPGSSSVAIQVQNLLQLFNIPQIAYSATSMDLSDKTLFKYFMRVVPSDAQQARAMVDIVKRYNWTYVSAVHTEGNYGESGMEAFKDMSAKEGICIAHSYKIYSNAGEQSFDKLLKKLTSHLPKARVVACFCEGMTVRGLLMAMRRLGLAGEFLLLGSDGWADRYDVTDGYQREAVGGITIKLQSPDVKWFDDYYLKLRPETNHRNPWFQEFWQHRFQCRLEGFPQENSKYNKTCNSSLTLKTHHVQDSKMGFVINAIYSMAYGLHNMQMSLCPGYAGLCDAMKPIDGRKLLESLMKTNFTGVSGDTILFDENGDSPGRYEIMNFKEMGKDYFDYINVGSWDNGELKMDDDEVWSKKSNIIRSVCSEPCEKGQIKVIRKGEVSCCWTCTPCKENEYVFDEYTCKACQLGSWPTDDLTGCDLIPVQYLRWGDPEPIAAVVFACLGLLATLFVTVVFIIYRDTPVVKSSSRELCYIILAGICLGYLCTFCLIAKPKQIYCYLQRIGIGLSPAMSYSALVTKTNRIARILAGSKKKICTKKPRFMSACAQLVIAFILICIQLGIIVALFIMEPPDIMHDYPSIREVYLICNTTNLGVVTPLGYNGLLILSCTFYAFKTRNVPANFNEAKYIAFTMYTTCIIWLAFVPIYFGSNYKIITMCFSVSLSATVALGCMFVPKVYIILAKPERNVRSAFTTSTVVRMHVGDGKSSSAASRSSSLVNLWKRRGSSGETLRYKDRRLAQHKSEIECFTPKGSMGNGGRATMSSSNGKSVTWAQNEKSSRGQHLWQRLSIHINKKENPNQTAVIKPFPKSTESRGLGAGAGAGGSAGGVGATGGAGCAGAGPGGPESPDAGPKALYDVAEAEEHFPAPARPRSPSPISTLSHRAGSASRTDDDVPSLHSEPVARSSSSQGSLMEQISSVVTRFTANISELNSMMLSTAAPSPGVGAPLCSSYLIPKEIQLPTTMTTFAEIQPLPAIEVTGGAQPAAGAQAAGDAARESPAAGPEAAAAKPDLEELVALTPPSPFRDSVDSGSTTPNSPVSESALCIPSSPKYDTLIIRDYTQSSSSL

O=C1c2cc3c(cc2OC2CCCN12)OCCO3 (stereo not shown) [CX614, 2H,3H,6aH-pyrrolidino[2″,1″-3′,2′]1,3-oxazino[6′,5′-5,4]benzo[e]1,4-dioxan-10-one]
reduction of GluR1 mRNA levels, CA1 stratum pyramidale ([1]; CX614 20 μM (FIG. 6 legend)): 40%
reduction of GluR1 mRNA levels, CA1 pyramidal cell layer, compared to control ([1]; CX614 50 μM (Example 6)): 40-45%
BDNF cRNA labeling, granule cells ([2]; 3 h, 10 μM CX614): modest increase
BDNF mRNA levels in CA1 stratum pyramidale, effect in words ([2]; 3 h, CX614 50 μM with or without MPEP 50 μM): small but non-significant increased
increase in BDNF mRNA, hippocampal granule cells (stratum granulosum) ([2]; 3 h, CX614 50 μM with or without MPEP 50 μM, vs control): 6.5 fold
BDNF mRNA, granule cells ([2]; 3 h, CX614 10, 20 or 50 μM): increased by all three doses
BDNF mRNA, pyramidal cells of CA1 and CA3 ([2]; 3 h, CX614 10, 20 or 50 μM): only increased with the 50 μM concentration; also recorded: only 50 μM CX614 elicited significant increases
BDNF cRNA labeling, granule cells ([2]; 3 h, higher doses of CX614 (20, 50 μM)): more dramatic increases
BDNF mRNA levels, CA1 pyramidal cells ([2]; 24 h, CX614 20 μM with or without MPEP 50 μM): small but non-significant increase
hybridization to BDNF mRNA, principal hippocampal cell layers, entorhinal cortex, neocortex ([2]; 6 h): increased; also recorded: markedly elevated
hybridization to BDNF mRNA, principal hippocampal cell layers, entorhinal cortex, neocortex ([2]; 24 h continuous treatment): still elevated above control densities; also recorded: begin to decline
reduction of GluR2 mRNA levels, CA1 stratum pyramidale ([3]; CX614 20 μM (FIG. 6 legend)): ~50%
reduction of GluR2 mRNA levels, CA1 pyramidal cell layer, compared to control ([3]; CX614 50 μM (Example 6)): 40-45%
mature BDNF protein levels above control levels [4]: 133%

C=Cc1cncc(C#Cc2csc(C)n2)c1 [Iso et al. compound 59, 3-[(2-methyl-4-thiazoly)ethynyl]-5-vinylpyridine]
antagonistic potency relative to MTEP [5]: 230 times

Cc1cccc(C#Cc2ccccc2)n1 [MPEP, 2-methyl-6-(phenylethynyl)pyridine]
GluR1 mRNA levels, CA1, effect in words [1, 7]: no significant effect
BDNF mRNA levels in the granule cell layer / any field, effect in words ([2]; 3 h, MPEP 50 μM alone): unaffected; also recorded: no effect in any field
GluR2 mRNA levels, CA1, effect in words [3, 7]: no significant effect; also recorded: small but non-significant increase

Cc1nc(C#Cc2cccnc2)cs1 [MTEP, 3-[(2-methyl-1,3-thiazol-4-yl)ethynyl]pyridine]
potency relative to MPEP [6]: 5 fold
